Results from patent publication US20090042991A1, “Methods of increasing natural killer cell activity for therapy” (priority 2005, published 2009).
Several values for one entry are separate records, joined by “and”; a condition that tells them apart may be missing. Equal values may be shown once. Entries after “also recorded” stand apart in the source; their conditions may differ.

Tests used:
[1] = tested on: NK cell activity; test: NK cell cytotoxic activity of patient PBMC (K562/eGFP flow cytometry), sarcoma study; type: in vivo, human; settings: for % tumor cell lysis post-dose / NK activity (change before and after dosing) / % tumor cell lysis pre-dose: Paclitaxel 80 + Cmpnd (1) 213 mg/M^2 weekly; for % tumor cell lysis pre-dose: baseline before dosing
From the text: The following procedure can be employed to assay NK cell activity in a subject. The procedure is adapted from Kantakamalakul W, Jaroenpool J, Pattanapanyasat K. A novel enhanced green fluorescent protein (EGFP)-K562 flow cytometric method for measuring natural killer (NK) cell cytotoxic activity. J Immunol Methods. 2003 Jan. 15; 272:189-197, the entire teachings of which are incorporated herein by reference.
Materials and methods: Human erythroleukaemic cell line, K562, was obtained from American Type Culture Collection (CCL-243, American Type Culture Collection, Manassas, Va.), and cultured in RPMI-1640 medium (Cat#1875-093Gibco Invitrogen Corp, Carlsbad, Calif.) supplemented with 10% heat inactivated fetal calf serum (Gibco), 2 mM L-glutamin, 100 μg/ml streptomycin and 100 IU/ml penicillin at 37° C. with 5% CO2. K562 cells were transduced with retroviral vector which encode green fluorescent protein (eGFP). Stable cell line was selected with antibiotic, G418.
The subject's peripheral blood mononuclear cells (PBMCs) were prepared by clinical study sites and received in BD Vacutainer Cell Preparation Tube with sodium heparin (Product Number: 362753, Becton Dickinson, Franklin Lakes, N.J.).
Effector cells alone and target cells alone were used as controls. All tubes were incubated at 37° C. with 5% CO2 for about 3.5 hr. Ten microliters of propidium iodide (PI) at a concentration of 1 mg/mL was added t each tube including effector and target control tubes and then incubated at room temperature for 15 min.
Cytotoxic activity was analyzed with a FACSCalibur flow cytometer (Becton Dickinson). Linear amplification of the forward and side scatter (FSC/SSC) signals, as well as logarithmic amplification of eGFP and PI emission in green and red fluorescence were obtained. Ten thousand events per sample tube with no gating for acquisition were collected for analysis. Data analysis for two-parameter dot plots for eGFP versus PI was performed using CELLQuest (Becton Dickinson Biosciences) software to enumerate live and dead target cells. Debris and dead cells were excluded by setting a threshold of forward light scatter.
(§1) Best Response indicates an evaluation of the patient's tumor: PR=at least a 30% decrease in the sum of the longest diameters as compared to baseline; SD indicates less than 20% of an increase and less than 30% of a decrease in the sum of the longest diameters as compared to baseline; and PD=at least a 20% increase in the sum of the longest diameters as compared to baseline. NK Activity indicates the change in NK activity before and after dosing.

[2] = Phase 1/2 lung carcinoma study: safety; type: in vivo, human
Method: Phase 1 (safety/PK/MTD (maximum tolerated dose) was followed by a Phase 2 randomized two arm portion. Two dose levels were evaluated in Phase 1.
Dosing was IV q 3 weeks for up to 6 cycles in the absence of dose-limiting toxicity or progression. […] The phase 2 primary endpoint is time to progression, with secondary endpoints of response rate, survival, and quality of life. Study pharmacodynamic parameters include NK cell activity and Hsp70 level.

[3] = tested on: non-small cell lung carcinoma; test: Phase 1/2 study: tumor response (RECIST) with carboplatin and paclitaxel; type: in vivo, human; settings: for Best Response / Target Lesions (percent change): one value per subject
[4] = Phase I trial: pharmacokinetics in plasma by LC/MS
Method: Pharmacokinetic (PK) studies were performed during cycle 1 using liquid chromatography/mass spectrometry (LC/MS) to measure both compounds in plasma. Heat shock protein 70 (Hsp70) was measured in plasma before and after treatment.

[5] = Sarcoma study: safety; type: in vivo, human; settings: 213 mg/m2 Compound (1) and 80 mg/m2 paclitaxel weekly
Method: The study is a 2 stage design, enrolling 30 patients in the first stage and adding 50 patients to total 80 if certain continuation criteria are met. Major inclusion criteria are refractory or recurrent soft tissue sarcomas other than gastrointestinal stromal tumor (GIST), with evidence of recent progression. […] For example, the compounds were administered together 3 weeks out of 4 on Days 1, 8, and 15 of a 28 day cycle as a 1 hour IV infusion. 30 Patients have been enrolled to completed accrual of Stage 1.

[6] = Melanoma study: safety; type: in vivo, human
Method: The higher tolerated dose level was expanded to a total of 20 patients (Stage 1).
The study will continue to Stage 2 if 7 or more patients have a response of stable disease or better, or at least 2 patients have a partial response or better. A safety assessment was performed with the first 6 patients enrolled as the weekly dose schedule had not previously been studied in humans. The primary endpoint is non-progression rate (NPR) at 3 months and response rate. Pharmacodynamic parameters include pre and post-dose NK cell activity in blood and when possible, tumor biopsies.

[7] = tested on: soft tissue sarcomas; test: Phase 2 study: tumor response with paclitaxel; type: in vivo, human
From the text: as §1, with “Major inclusion criteria are refractory or recurrent soft tissue sarcomas other than gastrointestinal stromal tumor (GIST), with evidence of recent progression. […] Best” for “Best”

[8] = Effector/Target 80:1, one value per subject
[9] = Effector/Target (40:1), subject 30
[10] = Paclitaxel 175 + Cmpnd (1) 233 mg/M^2 (carboplatin AUC 6)
[11] = Paclitaxel 200 + Cmpnd (1) 266 mg/M^2 (carboplatin AUC 6)

CN(NC(=O)CC(=O)NN(C)C(=S)c1ccccc1)C(=S)c1ccccc1 [Compound (1)]
% tumor cell lysis post-dose ([1]; 7 days after second dose, Effector/Target 80:1, one value per subject): 14.74% and 22.9% and 28.13% and 17.18% and 5.46% and 7.41% and 7.84% and 30.48% and 20.04% and 11.86%
NK activity (change before and after dosing) [1, 8]: decrease; also recorded: increase; also recorded: no change
% tumor cell lysis post-dose [1, 9]: 9.91%
NK activity (change before and after dosing) [1, 9]: no change
% tumor cell lysis pre-dose [1, 8]: 22.33% and 10.6% and 17.93% and 6.58% and 2.62% and 13.03% and 15.77% and 4.28% and 20.74% and 34.28%
% tumor cell lysis pre-dose [1, 9]: 9.88%
patients with decrease in NK cell activity pre- to post-dose ([1]; original patients of Table 4): four of the original patients
patients with statistically significant increase or no change in NK cell activity pre- to post-dose ([1]; original patients of Table 4): seven of the original patients
first cycle dose-limiting toxicities ([2]; Phase 1, Cohorts 1 and 2, 16 patients, with carboplatin AUC 6 and paclitaxel): No first cycle dose-limiting toxicities
adverse effects (AEs) ([2]; Phase 1, usually Grade 1-2, with carboplatin and paclitaxel): arthralgia and myalgia, peripheral neuropathy, rash, nausea, and vomiting, fatigue, alopecia, edema, dehydration, constipation, and decreased blood counts
tolerability of carboplatin:paclitaxel:Compound (1) combination ([2]; at the dose levels studied, safety profile similar to carboplatin:paclitaxel alone): well tolerated
time-to-progression (Kaplan-Meier, FIG. 2) ([3]; Compound (1) with paclitaxel and carboplatin versus platin/taxane combinations, preliminary data): superior to the platin/taxane combination alone; also recorded: superior to prior platin/taxane combinations alone
Best Response [3, 10]: PR (at least a 30% decrease in the sum of the longest diameters as compared to baseline); also recorded: SD (less than 20% of an increase and less than 30% of a decrease in the sum of the longest diameters as compared to baseline)
Target Lesions (percent change) [3, 10]: −34% and −24% and −62% and −5.9% and −30% and −67%
Best Response [3, 11]: PR (at least a 30% decrease in the sum of the longest diameters as compared to baseline)
Target Lesions (percent change) [3, 11]: −38% and −44%
patients achieving a partial response (PR) ([3]; Phase 1, eight of sixteen patients, with carboplatin and paclitaxel): 50%
target lesion size ([3]; each patient completing the study (#1-#8)): substantial decrease
patients with best response of at least a 30% decrease in sum of longest diameters ([3]; of the 8 patients completing the study): 5 patients
PK linearity ([4]; Compound (1) 44-525 mg/m2, unaffected by paclitaxel dose): linear PK
terminal-phase half life ([4]; human plasma, IV over 3 hours co-administered with paclitaxel, cycle 1): 56.4 ± 13.8 min
tolerability of addition of Compound (1) to weekly paclitaxel schedule [5]: well-tolerated
adverse events ([6]; Stage 1, with paclitaxel 80 mg/m2 weekly): as expected for paclitaxel chemotherapy administration
dose-limiting toxicities ([6]; initial safety assessment, Compound (1) 106 or 213 mg/m2 with paclitaxel 80 mg/m2 weekly): absence of dose-limiting toxicities
tolerability of the combination therapy ([6]; weekly schedule with paclitaxel): well-tolerated
Best Response cycle 2 ([7]; Paclitaxel 80 + Cmpnd (1) 213 mg/M^2 weekly, one value per subject): SD (less than 20% of an increase and less than 30% of a decrease in the sum of the longest diameters as compared to baseline); also recorded: PD (at least a 20% increase in the sum of the longest diameters as compared to baseline)
patients with at least a 20% increase in sum of longest diameters (PD) ([7]; patients completing the study (#23-#29, #31-33)): five patients
